Experimental data reported in patent US11547663B2, “Unit aerosol doses for anticoagulation” (InCarda Therapeutics, Inc., priority 2015, dated 2023).

Legend:
[1] = Inhaled anticoagulant in Myocardial Infarction patient (Example 4); type: in vivo, human
Description: Inhaled anticoagulant (e.g. Argatroban) will be administered (e.g., self-administered) to a patient suffering a Myocardial Infarction (MI) early to ensure that the patient is in an anti-coagulated state by the time the patient arrives at the hospital or point of care. This will facilitate further interventions, for which an anti-coagulated state is important.

extrinsic system = experiment: Prothrombin Time (PT) in dog blood after IV or IT anticoagulant; type: in vivo; conditions: for PT CS / PTCS: Coronary Sinus; for PT LA: Left Atrium
Experimental: (§1) To assess the efficacy of anticoagulants delivered via intratracheal (IT) inhalation, four different anticoagulants were tested in a dog study.
(§2) PK as well as biomarkers of blood in the Left Atrium (LA) and Coronary Sinus (CS) were monitored. These locations were chosen as these are the sites whereby clot formation occurs that leads to Myocardial Infarction or results in stroke.
(§3) These drugs and doses were selected to represent a wide spectrum of anticoagulant classes. One anticoagulant was tested in one dog on each arm of this study.
(§4) Factor Xa inhibition; Prothrombin Time (PT): measures the integrity of the extrinsic system as well as factors common to both systems; and Activated Partial Thromboplastin Time (aPTT or PTT): measures the integrity of the intrinsic system and the common components and factor-Xa inhibition.
(§5) Measurements were performed in the blood collected from Left Atrium (LA) and in the Coronary sinus (CS)—the targets for stroke prevention and Myocardial Infarction (MI), respectively.

[2] = Inhaled anticoagulant in patient undergoing heart valve replacement (Example 6); type: in vivo, human
Experimental: Inhaled anticoagulant (e.g. Argatroban) will be administered to a patient undergoing heart valve replacement to target the heart to reach an anti-coagulated state. In this example, a dose of 0.1 to 150 mg/kg can be sufficient to achieve an anti-coagulated state in 30 minutes.

intrinsic system = experiment: Activated Partial Thromboplastin Time (aPTT or PTT) in dog blood after IV or IT anticoagulant; type: in vivo; conditions: for PTT CS: Coronary Sinus; for PTT LA: Left Atrium
Experimental: as §1, §2, §3, §4, §5

[3] = Inhaled anticoagulant in heart transplant patient (Example 8); type: in vivo, human; conditions: patient undergoing heart transplant
Experimental: Inhaled anticoagulant (e.g. Argatroban) will be administered to a patient undergoing heart transplant to target the heart to reach an anti-coagulated state. In this example, a dose of 0.1 to 150 mg/kg can be sufficient to achieve an anti-coagulated state in 30 minutes.

intrinsic pathway = experiment: Activated clotting time (ACT) in dog blood after IV or IT anticoagulant; type: in vivo; conditions: for ACT LA: Left Atrium
Experimental: To assess the efficacy of anticoagulants delivered via intratracheal (IT) inhalation, four different anticoagulants were tested in a dog study. PK as well as biomarkers of blood in the Left Atrium (LA) and Coronary Sinus (CS) were monitored. These locations were chosen as these are the sites whereby clot formation occurs that leads to Myocardial Infarction or results in stroke. These drugs and doses were selected to represent a wide spectrum of anticoagulant classes. One anticoagulant was tested in one dog on each arm of this study. Activated clotting time (ACT), measures the time in seconds needed for whole blood to clot upon exposure to an activator of an intrinsic pathway by the addition of such as factor XII activators. Measurements were performed in the blood collected from Left Atrium (LA) and in the Coronary sinus (CS)—the targets for stroke prevention and Myocardial Infarction (MI), respectively.

[4] = cited from earlier work
[5] = in vivo; cited from earlier work
[6] = IV Argatroban 3 mg, 0 min (baseline)
[7] = T Argatroban 5 mg, 0 min (baseline)

For CC1CNc2c(cccc2S(=O)(=O)N[C@@H](CCCNC(=N)N)C(=O)N2CC[C@@H](C)C[C@@H]2C(=O)O)C1 (some centres unmarked) [Argatroban], the “time to achieve an anti-coagulated state” value ([1]; patient suffering Myocardial Infarction, inhaled 0.1 to 150 mg/kg) was 30 min, the “return to a normal coagulation state after initiating the administration” value (“return to a normal coagulation state” below) ([1]; patient suspected of Myocardial Infarction, inhaled) was 3 h and the “effect on PT” value (extrinsic system; IT (inhaled)) was “very marginal spikes”. For the same molecule, the “effect on PT” value (extrinsic system; IV) was “prolonged”, the “PT CS” value (extrinsic system; [6]) was 6.5 s and the “PT CS” value (extrinsic system; IV Argatroban 3 mg, 3 min) was 33.7 s. The “PT CS” value (extrinsic system; IV Argatroban 3 mg, 15 min) was 20.2 s, the “PT CS” value (extrinsic system; IV Argatroban 3 mg, 60 min) was 8.6 s and the “PT LA” value (extrinsic system; [6]) was 9.1 s. For the same molecule, the “PT LA” value (extrinsic system; IV Argatroban 3 mg, 1 min) was 44.3 s, the “PT LA” value (extrinsic system; IV Argatroban 3 mg, 3 min) was 36.3 s and the “PT LA” value (extrinsic system; IV Argatroban 3 mg, 5 min) was 30.1 s. The “PT LA” value (extrinsic system; IV Argatroban 3 mg, 10 min) was 22 s, the “PT LA” value (extrinsic system; IV Argatroban 3 mg, 15 min) was 18 s and the “PT LA” value (extrinsic system; IV Argatroban 3 mg, 30 min) was 11.5 s. For the same molecule, the “PT LA” value (extrinsic system; IV Argatroban 3 mg, 60 min) was 7.9 s, the “PT LA” value (extrinsic system; IV Argatroban 3 mg, 120 min) was 6.7 s and the “PTCS” value (extrinsic system; [7]) was 6.5 s. For the same molecule, the “PTCS” value (extrinsic system; T Argatroban 5 mg, 3 min) was 6.8 s, the “PTCS” value (extrinsic system; T Argatroban 5 mg, 15 min) was 8.9 s and the “PTCS” value (extrinsic system; T Argatroban 5 mg, 60 min) was 8.6 s. The “PT LA” value (extrinsic system; [7]) was 6.3 s, the “PT LA” value (extrinsic system; T Argatroban 5 mg, 1 min) was 6.7 s and the “PT LA” value (extrinsic system; T Argatroban 5 mg, 3 min) was 7 s. The “PT LA” value (extrinsic system; T Argatroban 5 mg, 5 min) was 7.2 s, the “PT LA” value (extrinsic system; T Argatroban 5 mg, 10 min) was 8.6 s and the “PT LA” value (extrinsic system; T Argatroban 5 mg, 15 min) was 10.4 s. The “PT LA” value (extrinsic system; T Argatroban 5 mg, 30 min) was 12 s, the “PT LA” value (extrinsic system; T Argatroban 5 mg, 60 min) was 8.1 s and the “PT LA” value (extrinsic system; T Argatroban 5 mg, 120 min) was 7.3 s. For the same molecule, the “return to a normal coagulation state” value ([2]; inhaled) was 3 h, the “time to achieve an anti-coagulated state” value ([2]; inhaled 0.1 to 150 mg/kg) was 30 min and the “effect on aPTT” value (intrinsic system; IT (inhaled)) was “very marginal spikes”. For the same molecule, the “effect on aPTT” value (intrinsic system; IV) was “prolonged”, the “PTT CS” value (intrinsic system; [6]) was 20.9 s and the “PTT CS” value (intrinsic system; IV Argatroban 3 mg, 3 min) was 20 s. The “PTT CS” value (intrinsic system; IV Argatroban 3 mg, 15 min) was 33.8 s, the “PTT CS” value (intrinsic system; IV Argatroban 3 mg, 60 min) was 24.9 s and the “PTT LA” value (intrinsic system; [6]) was 48.2 s. For the same molecule, the “PTT LA” value (intrinsic system; IV Argatroban 3 mg, 1 min) was 41.5 s, the “PTT LA” value (intrinsic system; IV Argatroban 3 mg, 3 min) was 29.5 s and the “PTT LA” value (intrinsic system; IV Argatroban 3 mg, 5 min) was 23.4 s. The “PTT LA” value (intrinsic system; IV Argatroban 3 mg, 10 min) was 20.9 s, the “PTT LA” value (intrinsic system; IV Argatroban 3 mg, 15 min) was 25.1 s and the “PTT LA” value (intrinsic system; IV Argatroban 3 mg, 30 min) was 12.2 s. For the same molecule, the “PTT LA” value (intrinsic system; IV Argatroban 3 mg, 60 min) was 9.8 s, the “PTT LA” value (intrinsic system; IV Argatroban 3 mg, 120 min) was 49.3 s and the “PTT CS” value (intrinsic system; [7]) was 16.1 s. The “PTT CS” value (intrinsic system; T Argatroban 5 mg, 3 min) was 18.4 s, the “PTT CS” value (intrinsic system; T Argatroban 5 mg, 15 min) was 9.5 s and the “PTT CS” value (intrinsic system; T Argatroban 5 mg, 60 min) was 40.3 s. For the same molecule, the “PTT LA” value (intrinsic system; [7]) was 13.3 s, the “PTT LA” value (intrinsic system; T Argatroban 5 mg, 1 min) was 12.5 s and the “PTT LA” value (intrinsic system; T Argatroban 5 mg, 3 min) was 17.7 s. The “PTT LA” value (intrinsic system; T Argatroban 5 mg, 5 min) was 17.2 s, the “PTT LA” value (intrinsic system; T Argatroban 5 mg, 10 min) was 20.1 s and the “PTT LA” value (intrinsic system; T Argatroban 5 mg, 15 min) was 17.8 s. For the same molecule, the “PTT LA” value (intrinsic system; T Argatroban 5 mg, 30 min) was 13.2 s, the “PTT LA” value (intrinsic system; T Argatroban 5 mg, 60 min) was 11.1 s and the “PTT LA” value (intrinsic system; T Argatroban 5 mg, 120 min) was 10.4 s. For the same molecule, the “return to a normal coagulation state” value ([3]; inhaled) was 3 h, the “time to achieve an anti-coagulated state” value ([3]; inhaled 0.1 to 150 mg/kg) was 30 min and the “time in which ACT returns to base line” value (intrinsic pathway) was 2 h. For the same molecule, the “increase of ACT above baseline” value (intrinsic pathway; IT) was ≤ 3.2 fold, the “time in which IT prolonged the ACT” value (intrinsic pathway; IT) was 15 to 30 min and the “effect on ACT” value (intrinsic pathway; IT (inhaled)) was “increased and prolonged ACT”. For the same molecule, the “effect on ACT” value (intrinsic pathway; IV) was “prolonged”, the “ACT LA” value (intrinsic pathway; [6]) was 101 s and the “ACT LA” value (intrinsic pathway; IV Argatroban 3 mg, 1 min) was 535 s. For the same molecule, the “ACT LA” value (intrinsic pathway; IV Argatroban 3 mg, 3 min) was 1000 s, the “ACT LA” value (intrinsic pathway; IV Argatroban 3 mg, 5 min) was 489 s and the “ACT LA” value (intrinsic pathway; IV Argatroban 3 mg, 10 min) was 326 s. For the same molecule, the “ACT LA” value (intrinsic pathway; IV Argatroban 3 mg, 15 min) was 264 s, the “ACT LA” value (intrinsic pathway; IV Argatroban 3 mg, 30 min) was 185 s and the “ACT LA” value (intrinsic pathway; IV Argatroban 3 mg, 60 min) was 140 s. The “ACT LA” value (intrinsic pathway; IV Argatroban 3 mg, 120 min) was 107 s, the “ACT LA” value (intrinsic pathway; [7]) was 84 s and the “ACT LA” value (intrinsic pathway; T Argatroban 5 mg, 1 min) was 89 s. The “ACT LA” value (intrinsic pathway; T Argatroban 5 mg, 3 min) was 73 s, the “ACT LA” value (intrinsic pathway; T Argatroban 5 mg, 5 min) was 106 s and the “ACT LA” value (intrinsic pathway; T Argatroban 5 mg, 10 min) was 135 s. The “ACT LA” value (intrinsic pathway; T Argatroban 5 mg, 15 min) was 180 s, the “ACT LA” value (intrinsic pathway; T Argatroban 5 mg, 30 min) was 259 s and the “ACT LA” value (intrinsic pathway; T Argatroban 5 mg, 60 min) was 180 s. For the same molecule, the “ACT LA” value (intrinsic pathway; T Argatroban 5 mg, 120 min) was 129 s.
In the case of CCCCS(=O)(=O)N[C@@H](Cc1ccc(OCCCCC2CCNCC2)cc1)C(=O)O [Tirofiban], the “Log P” value [4] is listed as 1.4 and the aqueous solubility [4] is listed as “low”.
For CO[C@H]1O[C@H](COS(=O)(=O)O)[C@@H](O[C@@H]2O[C@@H](C(=O)O)[C@@H](O[C@H]3O[C@H](COS(=O)(=O)O)[C@@H](O[C@@H]4O[C@H](C(=O)O)[C@@H](O[C@H]5O[C@H](COS(=O)(=O)O)[C@@H](OC)[C@H](OC)[C@H]5OC)[C@H](OC)[C@H]4OC)[C@H](OS(=O)(=O)O)[C@H]3OS(=O)(=O)O)[C@H](OC)[C@H]2OC)[C@H](OS(=O)(=O)O)[C@H]1OS(=O)(=O)O [idraparinux], the elimination half-life [5] is listed as “approximately 80 hours” and the “elimination half-life relative to fondaparinux” value [5] is listed as “five to six times longer”.
